Article PMC10138723, “Cytotoxic Steroidal Saponins Containing a Rare Fructosyl from the Rhizomes of Paris polyphylla var. latifolia” (International Journal of Molecular Sciences, 2023)
Where two headings read alike, the source gives them in different places.

Assays:
[1] = tested on: LN229 (human glioma cells); assay: CCK-8 cytotoxic assay, LN229; type: cell-based; details: read-out: IC50 ± SD, LN229
Text: (§1) U251 (human glioma cells), HeLa (human cervical cancer cells), and HepG2 (human hepatic cancer cells) were purchased from the Chinese Academy of Sciences (China), and Capan-2 (human pancreatic cancer cells) were obtained from Nanjing Cobioer Biosicences (Nanjing, China). American Type Culture Collection (ATCC) provided LN229 (human glioma cells). NHA (Gibco Human Astrocytes) and Gibco Astrocyte Medium (DMEM, N-2 Supplement, One Shot fetal bovine serum) were purchased from ThermoFisher Scientific (Waltham, MA, USA). The LN229, U251, HepG2 and HeLa cells were cultured in DMEM (Procell, Wuhan, China). The Capan-2 cells were cultured in RPMI-1640 (Procell, Wuhan, China) and NHA cells were cultured in Gibco Astrocyte Medium, supplemented with 10% FBS (Solarbio, Beijing, China) and 1% Penicillin–Streptomycin (Elabscience Biotechnology Co.,Ltd, Wuhan, China) at 37 °C with 5% CO2.
(§2) In the exponential phase of the growth, five tumor cell lines and one normal human astrocytes were plated onto 96-well plates at a concentration of 8000 cells/well for 24 h. Compounds 1–12 were prepared to various concentrations (64, 32, 16, 8, 4, 2, 1 and 0.5 µM in medium containing less than 0.1% DMSO) and incubated in 96-well plates (each concentration in four-fold wells) for 24 h. Cell viability was determined according to reported assay methods using the commercial CCK-8 kit (Elabscience Biotechnology Co., Ltd., Wuhan, China). The optical density (OD) of each well was measured with an AMR-100 microplate reader at 450 nm (Allsheng Corporation, Hangzhou, China). Cytotoxicity emerged as the value of the drug concentration at the inhibition of cell growth by 50% (IC50). The experiments were conducted for three independent replicates, and Doxorubicin was used as the positive control.

[2] = tested on: U251 (human glioma cells); assay: CCK-8 cytotoxic assay, U251; type: cell-based; details: read-out: IC50 ± SD, U251
Text: as §1, §2

[3] = tested on: Capan-2 (human pancreatic cancer cells); assay: CCK-8 cytotoxic assay, Capan-2; type: cell-based; details: read-out: IC50 ± SD, Capan-2
Text: as §1, §2

[4] = tested on: HeLa (human cervical cancer cells); assay: CCK-8 cytotoxic assay, HeLa; type: cell-based; details: read-out: IC50 ± SD, HeLa
Text: as §1, §2

[5] = tested on: HepG2 (human hepatic cancer cells); assay: CCK-8 cytotoxic assay, HepG2; type: cell-based; details: read-out: IC50 ± SD, HepG2
Text: as §1, §2

[6] = tested on: NHA (normal human astrocytes); assay: CCK-8 cytotoxic assay, NHA normal astrocytes; type: cell-based; details: Astrocyte, read-out: IC50 ± SD, NHA
Text: as §1, §2

[7] = tested on: five cancer cell lines (LN229, U251, Capan-2, HeLa, HepG2); assay: CCK-8 cytotoxic assay, summary over five cancer cell lines; type: cell-based; details: Homo sapiens, range over compounds 1 and 2 and five cancer cell lines, read-out: IC50 values (range) against five cancer cell lines
Text: as §1
In the exponential phase of the growth, five tumor cell lines and one normal human astrocytes were plated onto 96-well plates at a concentration of 8000 cells/well for 24 h. […] Cell viability was determined according to reported assay methods using the commercial CCK-8 kit (Elabscience Biotechnology Co., Ltd., Wuhan, China). The optical density (OD) of each well was measured with an AMR-100 microplate reader at 450 nm (Allsheng Corporation, Hangzhou, China). […]

glioma cells LN229 = assay: Flow cytometry analysis for apoptosis (Annexin V-FITC/PI); type: cell-based, human; details: different concentrations, 24 h
Experimental: Flow cytometry was used to analyze the effect of 1 on the apoptosis of glioma cells LN229. Cells were treated with different concentrations of 1 for 24 h. Then, the cells were collected and washed twice with cold PBS for five minutes (1000 rpm). The cells were analyzed for apoptosis by flow cytometry (BD, Franklin Lakes, NJ, USA) using the Annexin V-FITC/PI assay kit.

[8] = tested on: Bax/Bcl-2, cleaved caspase 3, cytochrome c in LN229 cells; assay: Western blot of apoptosis-related proteins in LN229; type: cell-based, human; details: LN229, 24 h, compared with the control group
Text: (§3) Primary antibodies against Bax (50599-2-Ig), Bcl-2 (26593-1-AP), Akt (10176-2-AP), p-Akt (28731-1-AP), PI3K (20584-1-AP), p-PI3K (60225-1-Ig), mTOR (28273-1-AP), p-mTOR (67778-1-Ig), Cytochrome C (10993-1-AP), β-actin (20536-1-AP), HRP-Goat-Anti-Mouse IgG (H+L) (SA00001-1), and HRP-Goat-Anti-Rabbit IgG (H+L) (SA00001-2) were obtained from Proteintech Group, Inc. (Rosemont, USA). Primary antibodies against EGFR (WL0682a), p-EGFR (WL03432) and cleaved caspase 3 (WL01992) were obtained from Wanleibio (Shenyang, China). The LN229 cells were treated with various concentrations of 1 or 0.1% DMSO for 24 h. A BCA Protein Assay Kit was used to measure the protein concentration, then equal amounts of protein samples were separated by 10% sodium dodecyl sulfate–polyacrylamide gel electrophoresis and transferred to a polyvinylidene fluoride membrane (Millipore, Burlington, MA, USA). The membranes were blocked for 2 h in Tris-buffered saline with PBST buffer, containing 5% skim milk. Then, the membranes were incubated with the appropriate primary antibodies overnight at 4 ℃. Then, the membranes were washed with PBST and reacted with a secondary horseradish peroxidase-conjugated antibody. Image Lab 5.2.1 (Biorad Laboratories, Hercules, CA, USA) was used to analyze the blots after detection using enhanced chemiluminescence (Millipore). Data analyses were performed using the GraphPad Prism software (San Diego, CA, USA).

[9] = tested on: EGFR/PI3K/Akt/mTOR signaling pathway in LN229 cells; assay: Western blot of EGFR/PI3K/Akt/mTOR signaling in LN229; type: cell-based, human; details: LN229, 24 h
Text: as §3

[10] = LN-229, LN229 cells, CCK-8, 24 h
[11] = NHA normal human astrocytes, CCK-8, 24 h

SMILES	IC50 [1, 10] [µM]	IC50 ([2]; U-251, U251 cells, CCK-8, 24 h) [µM]	IC50 ([3]; Capan-2 cells, CCK-8, 24 h) [µM]	IC50 ([4]; HeLa cells, CCK-8, 24 h) [µM]	IC50 ([5]; HepG2 cells, CCK-8, 24 h) [µM]	IC50 [6, 11] [µM]	other results
COc1cccc2c1C(=O)c1c(O)c3c(c(O)c1C2=O)C[C@@](O)(C(=O)CO)C[C@@H]3O[C@H]1C[C@H](N)[C@H](O)[C@H](C)O1 [Doxorubicin, reference compound]	0.35 ± 0.05	0.21 ± 0.04	0.18 ± 0.02	0.18 ± 0.02	0.21 ± 0.02	> 50	
CC(=O)C1=CCC2C3CC=C4C[C@@H](O[C@@H]5O[C@H](CO)[C@@H](O)[C@H](O)[C@H]5O[C@@H]5O[C@@H](C)[C@H](O)[C@@H](O)[C@H]5O)CC[C@]4(C)C3CC[C@]12C (some centres unmarked) [Compound 10, spongipregnolosides A]	> 50	> 50	> 50	> 50	> 50	> 50	
C=C1C(=O)OC2CC3C4CC=C5CC(OC6OC(CO)C(O)C(O)C6OC6OC(C)C(O)C(O)C6O)CCC5(C)C4CCC3(C)C12 (centres unmarked) [Compound 6, pallidifloside D]							IC50 ([1]; LN-229, 24 h): > 50 µM; IC50 ([2]; U-251, 24 h): > 50 µM; IC50 ([3]; Capan-2, 24 h): > 50 µM; IC50 ([4]; HeLa, 24 h): > 50 µM; IC50 ([5]; HepG2, 24 h): > 50 µM; IC50 ([6]; Homo sapiens, 24 h): > 50 µM
CC(=O)C1=CCC2C3CC=C4C[C@@H](O[C@@H]5O[C@H](CO)[C@@H](O[C@@H]6O[C@@H](CO)[C@H](O)[C@H]6O)[C@H](O)[C@H]5O[C@@H]5O[C@@H](C)[C@H](O)[C@@H](O)[C@H]5O)CC[C@]4(C)C3CC[C@]12C (stereo partly drawn) [Compound 4, pregna-5,16-diene-3β-ol-20-one-3-O-α-L-arabinofuranosyl-(1 → 4)-[α-L-rhamnopyranosyl(1 → 2)]-β-D-glucopyranoside]	> 50	> 50	> 50	> 50	> 50	> 50	
CC1CCC2(OC1)OC1CC3C4CC=C5CC(OC6OC(COC7(CO)OC(CO)C(O)C7O)C(O)C(O)C6OC6OC(C)C(O)C(O)C6O)CCC5(C)C4CCC3(C)C1C2C [Compound 1, diosgenin-3-O-β-D-fructofuranosyl-(1→6)-[α-L-rhamnopyranosyl-(1 → 2)]-β-D-glucopyranoside]	4.18 ± 0.31	3.85 ± 0.44	3.26 ± 0.34	3.3 ± 0.38	4.32 ± 0.51	> 50	IC50 [7]: 3.26 to 22.3 µM; ratio of apoptotic LN229 (Annexin V+/PI−) (glioma cells LN229): increased; ratio of living cells (Annexin V−/PI−) (glioma cells LN229): decreased; expression of Bax/Bcl-2 [8]: significantly increased; expression of cleaved caspase 3 [8]: significantly increased; expression of cytochrome c [8]: significantly increased; expression level of p-Akt [9]: decreased; expression level of p-PI3K [9]: decreased; expression level of p-mTOR [9]: decreased; expression of total EGFR [9]: no evident effect; phosphorylation levels of EGFR [9]: significantly suppressed
C=C1C(=O)OC2CC3C4CC=C5CC(OC6OC(CO)C(OC7OC(C)C(O)C(O)C7O)C(O)C6OC6OC(C)C(O)C(O)C6O)CCC5(C)C4CCC3(C)C12 (centres unmarked) [Compound 5, chonglouoside SL-8]	> 50	> 50	> 50	> 50	> 50	> 50	
Cc1c(CCC(C)COC2OC(CO)C(O)C(O)C2O)ccc2c1C1(C)CCC3C(CC=C4CC(OC5OC(CO)C(OC6OC(C)C(OC7OC(C)C(O)C(O)C7O)C(O)C6O)C(O)C5OC5OC(C)C(O)C(O)C5O)CCC43C)C1C2 (centres unmarked) [Compound 7, parispseudoside A]	> 50	> 50	> 50	> 50	> 50	> 50	
